Consider two compounds from patent US20230320984A1, “TOFACITINIB-CONTAINING ANHYDROUS ELASTOMER-BASED GEL FORMULATIONS” (Vyne Therapeutics Inc., priority 2022, published 2023).

In general, solubility refers to how much of the substance goes into solution per volume.

For series [1] the following is noted: minipig, in vivo.
Description: (§1) The animals are not fasted prior to blood collection, with the exception of the intervals that coincide with fasting for clinical pathology collections.
(§2) If necessary, the samples are frozen on dry ice prior to being placed in the freezer. […] Samples are stored at the bioanalytical laboratories in a freezer set to maintain −80±10° C. until analysis.
(§3) Samples designated for analysis of fingolimod and fingolimod phosphate are mixed gently, lysed with an equal volume of deionized water, vortexed for approximately 1 minute, divided into two approximately equal aliquots, transferred to uniquely labeled polypropylene tubes and frozen in a freezer set to maintain −70° C. If necessary, the samples are frozen on dry ice prior to being placed in the freezer. The samples for fingolimod analysis are shipped with a temperature monitoring device to bioanalytical laboratories. Samples are stored at the bioanalytical laboratories in a freezer set to maintain −75±15° C. until analysis.
(§4) Whole blood is analyzed for concentration of fingolimod and fingolimod phosphate using a validated analytical procedure for the simultaneous quantitation of both analytes.
(§5) TK samples collected on Days 49 and 56 from recovery animals in Groups 1, 2, 3, 5, and 6 are also analyzed. […]
The conditions of series [2]: human, in vivo.
Description: Values below the limit of concentration are omitted from determination of geometric mean and geometric % CV.
Samples designated for analysis of fingolimod and fingolimod phosphate are collected and processed for shipment to bioanalytical laboratories. Frozen samples are thawed at room temperature and homogenized by vortexing. 10 μL of ISTD working solution (WS ISTD2 50 ng/mL in methanol/water, 50/50, V/V) is addeded to Eppendorf tubes each containing 200 sample (exception blank samples for which 10 μL of methanol/water, 50/50, V/V is added). Samples are vortexed for 5 sec and 800 μL of acetonitrile is added to each sample and vortexed for additional 10 sec. Next samples are centrifuged for 10 min at 14000 rpm at 5° C. and 900 μL is transferred to hemolyse tube. The samples are evaporated at approximately 40° C. […]
Whole blood is analyzed for concentration of fingolimod and fingolimod phosphate using a validated analytical procedure for the simultaneous quantitation of both analytes. […] After, the analyte is separated on a Kinetex Biphenyl column (50×3.0 mm, 2.6 μm) and analyzed using electrospray ionization (ESI) tandem mass spectrometry (MS/MS) in the multiple reaction monitoring mode (MRM). […]
The test system of series [3] is S1P receptors (S1P1 and S1P3-5). Particulars: cited from earlier work.
Series [4] in a line: Toxicokinetics / pK in minipigs (Method T). Particulars: day 1; tofacitinib 0.6% fingolimod 0.005% gel group.
Description: as §1, §2, §3, §4, §5
Series [5] can be described thus: Chemical stability of formulations (Method H). In kind it is physicochemical. Particulars: gel with Tofacitinib Citrate 1.0% and Fingolimod HCl 0.01% (Table 38). As for the experimental part:
Where another active agent such as fingolimod is present in the formulations the samples are analyzed for that active agent and its degradation products by HPLC. […] The gradient elution is employed.

Series [6] in a line: Visual solubility evaluation of Fingolimod free base. It is filed as physicochemical. The following applies: for solubility: organic solvent or mixture, thermodynamic from solid, visual, RT. As for the experimental part:
A visual solubility evaluation of Fingolimod free base was performed.

Series [7] is described as follows: Human equivalent dose, safety factor and predicted exposure from the minipig NOAEL.
Series [8] concerns Human skin from cosmetic reduction surgery. The experiment in a line: Skin penetration (IVPT), vertical diffusion cell (Method A). It is filed as in vitro ADME. As for the experimental part:
The skin is dosed with approx. 6 mg of formulation to achieve a dose of ˜ 10 mg/cm2. Receptor solution is collected at pre-determined intervals over the course of 24 hours and analyzed using a liquid chromatography with tandem mass spectrometry (LC-MS/MS) analytical method.
Following 24 hours, the residual formulation is removed from the surface of the skin. The skin surface is tape-stripped up to five times to remove residual formulation and the top of the skin surface layers (Stratum Corneum). The epidermis is then heat-separated from the dermis. The active agent is extracted from the skin layers and the amount of active agent delivered to the epidermis and dermis is then determined by LC-MS/MS.

The test system of series [9] is Reconstructed Human Epidermis (RHE) exposed to Th2 cytokines IL-4, IL-13, IL-25. Kind of series: Reconstructed Human Epidermis Th2 model for AD efficacy (Method S). In kind it is cell-based. The following applies: 48 h. As for the experimental part:
Reconstructed Human Epidermis (RHE) tissues are produced and grown by StratiCELL. To generate the morphological and functional aspects of AD, RHE samples are exposed to Th2 cytokines IL-4, IL-13, IL-25. Th-2 cytokines are applied for 48 h in the culture medium of epidermis. Test formulations are applied simultaneously with the cytokines on the stratum corneum of the epidermis during the same 48 h. The tissue morphology is assessed by histology and hemalum/eosin (H/E) staining—quantification of a fluorescent dye (biotin) diffusion through the epidermis in order to evaluate the barrier function.

The conditions of series [10]: cited from earlier work.
The mark [11] stands for this setting: estimated from Table 43a, epidermis assumed 80 μm, skin 500 μm, density 1.0 g/cm^3.
Where [12] appears, read: gel with Fingolimod HCl […] (Table 42), Mean (n = 5).
Setting [13] is: gel with Tofacitinib Citrate 1.0% and Fingolimod HCl 0.01% (Table 43a), Mean (n = 5).

Read-outs that look alike come from different tables or passages of the source. A value given as a limit tells only on which side of the number the result lay.

Turning to fingolimod-phosphate, the quantifiability in blood entry in series [1] was “only quantifiable in the 0.2% fingolimod gel group”. In addition, the “whole blood concentrations (all below the assay LLOQ)” value in series [2] is reported as less than 0.08 ng/mL. The “affinity for four of the five S1P receptors” value in series [3] was 0.3 to 3.1 nM.
For the compound `CCCCCCCCc1ccc(CCC(N)(CO)CO)cc1` [fingolimod, 2-amino-2-[2-(4-octylphenyl)ethyl]propane-1,3-diol], the quantifiability in blood result in series [4] is recorded as “not quantifiable”. Besides, the “Assay of Fingolimod, % LC” value in [5] (2 months at 40° C.) amounted to 97.2 % LC; in series [5] (2 months at 50° C.), 95.0 % LC; in series [5] (3 weeks at 5° C.), 100.3 % LC; in series [5] (3 weeks at 40° C.), 99.9 % LC; in [5] (3 weeks at 50° C.) it was 94.1 % LC; in series [5] (Initial), 99.9 % LC. Further, the “visual solubility at RT” value in series [6] (alcohols) was “very good solubility”; in series [6] (most of organic solvents tested), “good solubility”; in [6] (water, toluene, diisopropyloxide and methyl ethyl ketone), “very low soluble”. Further, the solubility is less than 1.1 mg/mL in series [6] (Diisopropyloxide); more than 20 mg/mL in series [6] (Ethanol); more than 20 mg/mL in series [6] (Methanol); less than 1.7 mg/mL in [6] (Toluene); “soluble” in series [10] (organic solvents, such as ethanol, DMSO and dimethyl formamide); “sparingly soluble” in series [10] (water). In [7] (from minipig NOAEL, minipig 10 kg, human 60 kg), the “human equivalent dose (HED)” value was 2.21 mg/kg/day. In series [7] (maximum daily application of 2 g dual active gel), the “safety factor over the NOAEL of the 6-week minipig dermal toxicity study” value is recorded as 669 fold. For the same compound, in [2], the “whole blood concentrations (all below the assay LLOQ)” value is given as less than 0.08 ng/mL. In [8] (setting [11]), the “Dermis concentration, μg/g Based on the Mean (n = 5)” value was 0.6 µg/g. Besides, the “Epidermis concentration, μg/g Based on the Mean (n = 5)” value in series [8] (setting [11]) was 3.4 µg/g. In addition, the “estimated concentration of active in dermis” value in series [8] (formulation with 1.0% tofacitinib citrate and […] fingolimod hydrochloride) is 0.6 µg/mL. In addition, the “estimated concentration of active in epidermis” value in [8] (formulation with 1.0% tofacitinib citrate and […] fingolimod hydrochloride, epidermis assumed 80 μm) is 3.4 µg/g. For the same compound, the “Amount of Fingolimod recovered, % applied dose, Dermis” value in series [8] (setting [12]) is 2.59%; in [8] (setting [13]), 1.44%. For the same compound, the “Amount of Fingolimod recovered, % applied dose, Epidermis” value in series [8] (setting [12]) came out at 1.98%; in series [8] (setting [13]), 1.59%. Further, the “Amount of Fingolimod recovered, % applied dose, Receptor fluid” value is “ND (not detected (below LOQ of 0.25 ng/mL))” in series [8] (setting [12]) and “ND (not detected (below LOQ of 0.25 ng/ml))” in series [8] (setting [13]). Also, the “Amount of Fingolimod recovered, ng, Dermis” value is 49.16 ^ ng in series [8] (setting [12]) and 14.82 ng in series [8] (setting [13]). Further, the “Amount of Fingolimod recovered, ng, Receptor fluid” value in series [8] (setting [12]) is “ND (not detected (below LOQ of 0.25 ng/mL))”; in [8] (setting [13]) it was “ND (not detected (below LOQ of 0.25 ng/ml))”. The “Amount of Fingolimod recovered, ng, Epidermis” value in [8] (setting [13]) worked out at 16.21 ng. Besides, the “barrier function (biotin immunofluorescence)” value in [9] (0.001% w/w and 0.01% w/w) is listed as “reduced the Th2-induced barrier alteration”; in [9] (0.1% and 1%), “Increased barrier alteration”. In addition, the “tissue morphology (histology)” value in series [9] (0.001% w/w and 0.01% w/w) was “reduced the Th2-induced barrier alteration”; in [9] (0.1% w/w and 1% w/w), “increased fragilization was observed with junction/adhesion loss and disorganization of cell layers”.
